Data published in patent US8431525B2, “Coelenteramide analogs” (JNC Corporation, priority 2009, dated 2013).

Experiments:
[1] = Fluorescence spectra at a final concentration of 30 μM (Example 2); assay type: physicochemical; settings: excited at 330 nm; for Fluorescence Intensity (MeOH) / λmax (MeOH)/nm: methanol, 30 μM; for Fluorescence Intensity (PB) / λmax (PB)/nm: phosphate buffer pH 7.4, 30 μM
Description: (§1) The fluorescence quantum yield of each CTMD analog synthesized was determined by the following procedure. The fluorescence spectrum was measured at 25° C. using a spectrofluorometer FP-6500 of JASCO (JASCO Corp., Tokyo). Specifically, the CTMD analog was dissolved in methanol (MeOH) or in 67 mM phosphate buffer (PB) (pH 7.4) at a final concentration of 750 nM using a quartz cell (light path length of 10 mm). Measurement was performed 3 times at the excited wavelength of 330 nm, emission/excitation band width of 3 nm, response of 0.5 second and scanning rate of 100 nm/min. The average was taken as the fluorescence spectrum of the compound. The fluorescence quantum yield was determined after the spectrum was corrected.
The fluorescence quantum yield determined in EXAMPLE 1 was estimated by measuring the fluorescence spectra when the final concentration of coelenteramide analogs was 750 nM. When the final concentration was 750 nM as in EXAMPLE 1, any fluorescence spectrum was not detected for c-14, c-31 and c-36 both in methanol and in a phosphate buffer, and not detected for c-25 in a phosphate buffer, in coelenteramide analogs of the present invention (n.d.: not detected). With respect to c-14, c-31, c-25 and c-36 that no fluorescence spectrum was detected, fluorescence spectra were measured under the same conditions as in EXAMPLE 1 except that the final concentration of these coelenteramide analogs was 30 μM. In a similar method, the fluorescence spectrum for C-4 was also measured at a final concentration of 30 μM. The fluorescence spectrum also for […] was measured in 50 mM Tris-HCl (pH 7.6) containing 10 mM CaCl2 under the same conditions as in EXAMPLE 1 except that the final concentration was 18 μM.

[2] = Fluorescence spectrum and fluorescence quantum yield of CTMD analogs at 750 nM (Example 1); assay type: physicochemical; settings: for Fluorescence quantum yield (PB) / λmax (PB)/nm: 67 mM phosphate buffer pH 7.4, 750 nM; for Fluorescence quantum yield (PB) / λmax (PB)/nm / λmax (MeOH)/nm / Fluorescence quantum yield (MeOH): 25° C., excited at 330 nm; for Fluorescence quantum yield (PB) / Fluorescence quantum yield (MeOH): relative to quinine sulfate 0.55; for λmax (PB)/nm / λmax (MeOH)/nm: fluorescence emission; for λmax (MeOH)/nm / Fluorescence quantum yield (MeOH): methanol; for λmax (MeOH)/nm / Fluorescence quantum yield (MeOH) / fluorescence spectrum detected: 750 nM; for fluorescence properties compared with known CTMD (c-4) or h-CTMD (c-13): from TABLE 1
Description: as §1
Quinine sulfate was used as a standard for determining the fluorescence quantum yield. After quinine sulfate (Wako Pure Chemical Industries) was dissolved in 0.1N sulfuric acid aqueous solution, measurement was performed at the excitation light of 366 nm under the conditions for fluorescence measurements described above. The relative fluorescence quantum yield (fluorescence intensity) of the compound was calculated relative to the quantum yield of quinine sulfate as being 0.55.

Compound | Fluorescence Intensity (MeOH) [1] | λmax (MeOH)/nm [1] [nm] | Fluorescence Intensity (PB) [1] | λmax (PB)/nm [1] [nm] | Fluorescence quantum yield (PB) [2] | λmax (PB)/nm [2] [nm] | λmax (MeOH)/nm [2] [nm] | Fluorescence quantum yield (MeOH) [2] | melting point | fluorescence spectrum detected ([2]; both in methanol and in a phosphate buffer) | fluorescence properties compared with known CTMD (c-4) or h-CTMD (c-13) [2] | fluorescence spectrum detected ([2]; in a phosphate buffer)
O=C(Cc1ccc(O)cc1)Nc1ncc(-c2ccc(O)cc2)nc1Cc1ccccc1 [c-4, 3-benzyl-5-(4-hydroxyphenyl)-2-[(4-hydroxyphenyl)acetylamino]pyrazine, reference compound] | 80.0 | 428.0 | 1.7 | 444.5 | 0.001 | 451 | 427.5 | 0.012 | – | – | – | –
Oc1ccc(-c2cnc(NC(=S)Cc3ccccc3)c(Cc3ccccc3)n2)cc1 [c-14, 3-Benzyl-5-(4-hydroxyphenyl)-2-(phenylthioacetylamino)pyrazine] | 6.5 | 428.0 | 1.4 | 435.5 | – | – | – | – | 195 to 198 °C | not detected | different fluorescence properties | –
CC(=O)Nc1ncc(-c2ccc(O)cc2)nc1Cc1ccccc1 [c-25, 2-Acetylamino-3-benzyl-5-(4-hydroxyphenyl)pyrazine] | – | – | 2.0 | 446.0 | – | 446.5 | 425.5 | 0.009 | – | – | – | not detected
O=S(=O)(Cc1ccccc1)Nc1ncc(-c2ccccc2)nc1Cc1ccccc1 [c-37, 3-Benzyl-2-benzylsulfonylamino-5-phenylpyrazine] | – | – | – | – | 0.227 | 419.5 | 402.5 | 0.196 | 207 to 208.5 °C | – | different fluorescence properties | –
CC(=O)Oc1ccc(-c2cnc(N(S(C)(=O)=O)S(C)(=O)=O)c(Cc3ccccc3)n2)cc1 [c-39, 5-(4-Acetoxyphenyl)-3-benzyl-2-bis(methanesulfonyl)aminopyrazine] | – | – | – | – | 0.096 | 419 | 381.5 | 0.079 | 165.5 to 167 °C | – | different fluorescence properties | –
CC(=O)Oc1ccc(-c2cnc(N(S(=O)(=O)c3ccc([N+](=O)[O-])cc3)S(=O)(=O)c3ccc([N+](=O)[O-])cc3)c(Cc3ccccc3)n2)cc1 [c-40, 5-(4-Acetoxyphenyl)-3-benzyl-2-bis(4-nitrophenylsulfonyl)aminopyrazine] | – | – | – | – | 0.021 | 415 | 407.5 | 0.004 | 227 to 229.5 °C (dec.) | – | different fluorescence properties | –
O=S(=O)(Cc1ccccc1)N(c1ncc(-c2ccccc2)nc1Cc1ccccc1)S(=O)(=O)Cc1ccccc1 [c-42, 3-Benzyl-2-bis(benzylsulfonyl)amino-5-phenylpyrazine] | – | – | – | – | 0.011 | 420.5 | 398.5 | 0.180 | 71.5 to 74.5 °C | – | different fluorescence properties | –
